Data as given in publication PMC7069944, “Amino acid levels determine metabolism and CYP450 function of hepatocytes and hepatoma cell lines” (Nature Communications, 2020).
Values joined by “and” are separate entries in the source; they are usually repeats but may differ in a detail not shown here. Equal values may be shown once.

Tests used:
HC3X = test: Repeated-exposure DILI training compounds, resazurin conversion, HC3X
Procedure: (§1) To evaluate the ability to predict hepatotoxicity, we adapted the differentiation assays to a 384-well format. […] As a readout, we evaluated cell viability by resazurin conversion and correlated the results to therapeutic doses (Cmax values).
(§2) PSCs were differentiated in a 384-well format. […] As a negative control, 41 wells were left untreated. HepG2 were seeded at 40,000 cells per well. […] Cells were fixed with 4% PFA. […] Drugs were administrated after 8 h of attachment.

HepG2 = test: Repeated-exposure DILI training compounds, resazurin conversion, HepG2; conditions: repeat exposure
Procedure: as §1, §2

HLC = test: Repeated-exposure DILI training compounds, resazurin conversion, HLC; conditions: repeat exposure
Procedure: as §1, §2

HC6X = test: Repeated-exposure DILI training compounds, resazurin conversion, HC6X; conditions: repeat exposure
Procedure: as §1, §2

COc1ccccc1Oc1c(NS(=O)(=O)c2ccc(C(C)(C)C)cc2)nc(-c2ncccn2)nc1OCCO [bosentan]
IC50/Cmax (HC3X; human): 20.81
% resazurin conversion (HC3X; repeat exposure, HC3X AAGLY D40, 600 uM): 1159% and 1257% and 1241% and 1301% and 1247% and 1406%
% resazurin conversion (HepG2; HepG2 AAGLY D30, 3 uM): 83.9% and 87.5% and 86.6% and 85% and 90.8% and 89.1%
% resazurin conversion (HepG2; HepG2 AAGLY D30, 5 uM): 103.5% and 109.8% and 105.4% and 106.1% and 101% and 103.7%
% resazurin conversion (HepG2; HepG2 AAGLY D30, 10 uM): 90.8% and 98.2% and 96.3% and 97.7% and 97.3% and 97.5%
% resazurin conversion (HepG2; HepG2 AAGLY D30, 30 uM): 90.6% and 101.6% and 98.2% and 101.9% and 99.2% and 99.7%
% resazurin conversion (HepG2; HepG2 AAGLY D30, 50 uM): 84.4% and 90.1% and 80.4% and 87% and 86.9% and 92.2%
% resazurin conversion (HepG2; HepG2 AAGLY D30, 600 uM): 8% and 8.7% and 8.4% and 8.6% and 8.3% and 9%
% resazurin conversion (HepG2; HepG2 AAGLY D30, 1200 uM): 7.9% and 8.6% and 8% and 8.4% and 8.7%
% resazurin conversion (HepG2; HepG2 CTL D7, 3 uM): 72.9% and 95.8% and 79% and 88.4% and 77.2% and 78.8%
% resazurin conversion (HepG2; HepG2 CTL D7, 5 uM): 73% and 91.1% and 80.4% and 81.6% and 71% and 76.1%
% resazurin conversion (HepG2; HepG2 CTL D7, 10 uM): 80.2% and 87.8% and 81.3% and 100.4% and 83.9% and 90.2%
% resazurin conversion (HepG2; HepG2 CTL D7, 30 uM): 88.1% and 98.7% and 86.3% and 105.4% and 85.7% and 92.4%
% resazurin conversion (HepG2; HepG2 CTL D7, 50 uM): 100.8% and 104.7% and 98% and 123.6% and 67.3% and 101.1%
% resazurin conversion (HepG2; HepG2 CTL D7, 100 uM): 111.8% and 105.3% and 106.2% and 109.9% and 117.5%
% resazurin conversion (HepG2; HepG2 CTL D7, 300 uM): 107% and 119.1% and 111.5% and 146.3% and 120.1% and 110.8%
% resazurin conversion (HepG2; HepG2 CTL D7, 600 uM): 50.2% and 44.9% and 48.2% and 53.5% and 46.5% and 47.5%
% resazurin conversion (HepG2; HepG2 CTL D7, 1200 uM): 40.4% and 38.1% and 40.3% and 39.7% and 40.2% and 39%
% resazurin conversion (HLC; HLC AAGLY D40, 3 uM): 109.3% and 112.7% and 130.6% and 92% and 117.8% and 119.8%
% resazurin conversion (HLC; HLC AAGLY D40, 10 uM): 148.2% and 164.2% and 142.5% and 106% and 129.2% and 90.2%
% resazurin conversion (HLC; HLC AAGLY D40, 30 uM): 132.6% and 125.2% and 98.6% and 133% and 124.8%
% resazurin conversion (HLC; HLC AAGLY D40, 300 uM): 153.6% and 174.4% and 181% and 131.1% and 171.9% and 113.3%
% resazurin conversion (HLC; HLC LDM D40, 3 uM): 65.2% and 80.9% and 104.5% and 116.7% and 90.6% and 90.5%
% resazurin conversion (HLC; HLC LDM D40, 5 uM): 79.3% and 100.8% and 63.5% and 57.3% and 83.2% and 66.4%
% resazurin conversion (HLC; HLC LDM D40, 10 uM): 54.2% and 93.9% and 81.1% and 77.7% and 59.3% and 81.3%
% resazurin conversion (HLC; HLC LDM D40, 50 uM): 60.7% and 70.7% and 67.1% and 86.7% and 80.2% and 104.9%
% resazurin conversion (HLC; HLC LDM D40, 100 uM): 75% and 93.6% and 100.7% and 102.7% and 92.9% and 94.1%
% resazurin conversion (HC6X; HC6X AAGLY D40, 3 uM): 121.3% and 137.4% and 77.6% and 97.3% and 111.3% and 90.5%
% resazurin conversion (HC6X; HC6X AAGLY D40, 5 uM): 110% and 103.2% and 89.1% and 89.6% and 114.4% and 93.7%
% resazurin conversion (HC6X; HC6X AAGLY D40, 10 uM): 131.4% and 134.4% and 92.1% and 126.5% and 93.7% and 145.1%
% resazurin conversion (HC6X; HC6X AAGLY D40, 50 uM): 121.5% and 126.6% and 76.5% and 101.9% and 125.3% and 68.1%
% resazurin conversion (HC6X; HC6X AAGLY D40, 300 uM): 51.6% and 48.9% and 38.5% and 48% and 36.4% and 37.5%
% resazurin conversion (HC6X; HC6X AAGLY D40, 600 uM): 42.8% and 51.2% and 38.6% and 45.8% and 36.3% and 36.8%
% resazurin conversion (HC6X; HC6X AAGLY D40, 1200 uM): 43.6% and 36.9% and 34.8% and 34.9% and 34.2% and 34.3%
% resazurin conversion (HC6X; HC6X AAGLY D40 Remove dox, 5 uM): 141.3% and 131.9% and 106.3% and 141.8% and 135.5% and 84.1%
% resazurin conversion (HC6X; HC6X AAGLY D40 Remove dox, 10 uM): 112.1% and 102.7% and 152.9% and 116.3% and 149.9% and 95.7%
